The numbers were not newly measured in US12009562B2, “High solubility iron hexacyanides” (Lockheed Martin Energy, LLC, priority 2012, dated 2024), which cites them from elsewhere.

With `O.O.O.O.O.O.O.O.O.O.[C-]#N.[C-]#N.[C-]#N.[C-]#N.[C-]#N.[C-]#N.[Fe+2].[Na+].[Na+].[Na+].[Na+]` [Na4Fe(CN)6.10H2O], the “concentration reported upon saturating 2 M NaOH” value was about 0.6 M.
